Results as given in patent publication US20230303542A1, “SOLID FORMS OF A PARP14 INHIBITOR” (Ribon Therapeutics, Inc., priority 2022, published 2023).
In brackets after ≈: the same amount, converted by molar mass.

Legend:
Format in all cases: physicochemical
[1] = Preliminary solubility of Compound 1 Form I, visual assessment; conditions: thermodynamic from solid, estimated via visual assessment
[2] = Kinetic solubility of Form II, clear temperature point by Crystal 16; conditions: organic solvent or mixture, thermodynamic from solid; at 30° C.; volume ratio of MeOH-water/MTBE 9/1/30
[3] = Solid-state stability study (HPLC purity and XRPD); conditions: 60° C. (closed) and 40° C./75%RH for 14 days
Experimental: HPLC analysis was performed with an Agilent HPLC 1260 series instrument.
At day 0, 7 and 14, the sample was dissolved in diluent to prepare solution for HPLC purity analysis. Solid samples were analyzed by XRPD to check the crystal form.
(closed) and 40° C./75%RH (open) up to 14 days, samples were prepared in duplicate for each condition. […] (closed) and 40° C./75%RH for 14 days.

[4] = Dynamic solubility of Form II in single solvents, dissolution observed visually; conditions: thermodynamic from solid, 22° C.
Experimental: An appropriate amount of Form II was weighed into a sample vial and then the indicated solvent was added gradually until all the solid was dissolved at RT. The dissolution was observed visually.

[5] = Dynamic solubility of Form II in mixed solvents, dissolution observed visually; conditions: thermodynamic from solid
Source text: The solubility data was used to control supersaturation and calculate theoretical yield of the crystallization process.

[6] = organic solvent or mixture, 2-Me-THF
[7] = organic solvent or mixture, Acetone
[8] = organic solvent or mixture, Ethanol (EtOH)
[9] = organic solvent or mixture, Ethyl acetate (EA)
[10] = organic solvent or mixture, Methanol (MeOH)
[11] = organic solvent or mixture, Methyl ethyl ketone (MEK)

`CC(=O)N1CCC(COc2cc(F)c3c(=O)[nH]c(CSC4CCOCC4)nc3c2)CC1` [Form I, 7-((1-acetylpiperidin-4-yl)methoxy)-5-fluoro-2-(((tetrahydro-2H-pyran-4-yl)thio)methyl)quinazolin-4(3H)-one] gave a solubility [1, 6] of 10000 µg/mL (≈ 22.2 mM), a solubility ([1]; organic solvent or mixture, ACN) of less than 600 µg/mL and a solubility [1, 7] of 1000 µg/mL (≈ 2.22 mM). It also gave a solubility ([1]; organic solvent or mixture, DCM) of 6300 µg/mL (≈ 14 mM), a solubility ([1]; organic solvent or mixture, DMSO) of 16700 µg/mL (≈ 37.1 mM) and a solubility [1, 8] of 3300 µg/mL (≈ 7.34 mM). The solubility [1, 9] was 2500 µg/mL (≈ 5.56 mM), the solubility ([1]; organic solvent or mixture, Heptane) was less than 600 µg/mL and the solubility ([1]; organic solvent or mixture, Isopropyl acetate (IPAC)) was 1300 µg/mL (≈ 2.89 mM). The solubility ([1]; organic solvent or mixture, Isopropyl alcohol (IPA)) was less than 600 µg/mL, the solubility [1, 10] was 10000 µg/mL (≈ 22.2 mM) and the solubility [1, 11] was 10000 µg/mL (≈ 22.2 mM). The solubility ([1]; organic solvent or mixture, Methyl tert-butyl ether (MTBE)) was less than 600 µg/mL, the solubility ([1]; organic solvent or mixture, THF) was 4200 µg/mL (≈ 9.34 mM) and the solubility ([1]; organic solvent or mixture, Toluene) was less than 600 µg/mL. For the same compound, the solubility ([1]; Water) was less than 600 µg/mL.
In the case of `CC(=O)N1CCC(COc2cc(F)c3c(=O)[nH]c(CSC4CCOCC4)nc3c2)CC1` [Form II, 7-((1-acetylpiperidin-4-yl)methoxy)-5-fluoro-2-(((tetrahydro-2H-pyran-4-yl)thio)methyl)quinazolin-4(3H)-one], the solubility at 30 min [2] is reported as 6500 µg/mL, the “Physical and chemical stability” value [3] is reported as “both physically and chemically stable” and the solubility [4, 6] is reported as 700 µg/mL (≈ 1.56 mM). The solubility ([4]; organic solvent or mixture, 2-Propanol (IPA)) was less than 600 µg/mL, the solubility ([4]; organic solvent or mixture, Acetic acid) was greater than 167000 µg/mL and the solubility [4, 7] was 800 µg/mL (≈ 1.78 mM). It also gave a solubility ([4]; organic solvent or mixture, Acetonitrile (ACN)) of 600 µg/mL (≈ 1.33 mM), a solubility ([4]; organic solvent or mixture, Dichloromethane (DCM)) of 16700 µg/mL (≈ 37.1 mM) and a solubility ([4]; organic solvent or mixture, Dimethyl sulfoxide (DMSO)) of 12500 µg/mL (≈ 27.8 mM). The solubility [4, 8] was 1000 µg/mL (≈ 2.22 mM), the solubility [4, 9] was less than 600 µg/mL and the solubility ([4]; organic solvent or mixture, Isopropyl acetate (IPAc)) was less than 600 µg/mL. It also gave a solubility [4, 10] of 8300 µg/mL (≈ 18.5 mM), a solubility [4, 11] of 1700 µg/mL (≈ 3.78 mM) and a solubility ([4]; organic solvent or mixture, Tert-Butyl methyl ether (MTBE)) of less than 600 µg/mL. For the same compound, the solubility ([4]; organic solvent or mixture, Tetrahydrofuran (THF)) was 4200 µg/mL (≈ 9.34 mM), the solubility ([4]; organic solvent or mixture, Toluene (Tol)) was less than 600 µg/mL and the solubility ([4]; organic solvent or mixture, n-Heptane (Hept)) was less than 600 µg/mL. It also gave a solubility ([4]; Water) of less than 600 µg/mL, a solubility ([5]; MeOH/Anisole (1/2), organic solvent or mixture, MeOH/Anisole (½), 25° C.) of roughly 150000 µg/mL (≈ 334 mM) and a solubility ([5]; MeOH/Anisole (1/2), organic solvent or mixture, MeOH/Anisole (½), 40° C.) greater than 200000 µg/mL. The solubility ([5]; organic solvent or mixture, Anisole, 25° C.) was less than 1000 µg/mL, the solubility ([5]; organic solvent or mixture, MeOH/Anisole (1/1), 25° C.) was 163000 to 176000 µg/mL (≈ 363 to 392 mM) and the solubility ([5]; organic solvent or mixture, MeOH/Anisole (1/1), 40° C.) was roughly 250000 µg/mL (≈ 556 mM). The solubility ([5]; organic solvent or mixture, MeOH/Anisole (2/1), 25° C.) was 96000 to 106000 µg/mL (≈ 214 to 236 mM), the solubility at 30 min ([5]; organic solvent or mixture, MeOH/Anisole, volume ratio 1/1, RT, read-out: Solubility) was 150000 to 160000 µg/mL and the solubility ([5]; organic solvent or mixture, MeOH/Anisole/Hept (1/1/6), 25° C.) was less than 5000 µg/mL. It also gave a solubility ([5]; organic solvent or mixture, MeOH/Anisole/Hept (1/2/3), 25° C.) greater than 10000 µg/mL, a solubility ([5]; organic solvent or mixture, MeOH/Anisole/Hept (1/2/6), 25° C.) of roughly 5000 µg/mL (≈ 11.1 mM) and a solubility ([5]; organic solvent or mixture, MeOH/Anisole/MTBE (1/2/6), 25° C.) of roughly 3000 µg/mL (≈ 6.67 mM). The solubility at 30 min ([5]; organic solvent or mixture, MeOH/MEK, volume ratio 1/1, RT, read-out: Solubility) was 20000 to 30000 µg/mL, the solubility ([5]; organic solvent or mixture, MeOH/water (7/3), 60° C.) was roughly 125000 µg/mL (≈ 278 mM) and the solubility at 30 min ([5]; organic solvent or mixture, MeOH/water (7/3), RT, read-out: Dynamic solubility) was 10000 to 13000 µg/mL (≈ 22.2 to 28.9 mM). The solubility ([5]; organic solvent or mixture, MeOH/water (8/2), 50° C.) was 50000 to 100000 µg/mL (≈ 111 to 222 mM), the solubility ([5]; organic solvent or mixture, MeOH/water (8/2), 60° C.) was greater than 125000 µg/mL and the solubility at 30 min ([5]; organic solvent or mixture, MeOH/water (8/2), RT, read-out: Dynamic solubility) was 13000 to 17000 µg/mL (≈ 28.9 to 37.8 mM). For the same compound, the solubility ([5]; organic solvent or mixture, MeOH/water (9/1), 0° C.) was 6000 to 10000 µg/mL (≈ 13.3 to 22.2 mM), the solubility ([5]; organic solvent or mixture, MeOH/water (9/1), 60° C.) was greater than 125000 µg/mL and the solubility at 30 min ([5]; organic solvent or mixture, MeOH/water (9/1), RT (Table of MeOH/Water), read-out: Dynamic solubility) was 10000 to 13000 µg/mL (≈ 22.2 to 28.9 mM). It also gave a solubility at 30 min ([5]; organic solvent or mixture, MeOH/water, volume ratio 9/1, RT (Table of mixed solvents at RT), read-out: Solubility) of 35000 to 43000 µg/mL, a solubility ([5]; organic solvent or mixture, MeOH/water/MTBE (9/1/10), 0° C.) greater than 4500 µg/mL and a solubility ([5]; organic solvent or mixture, MeOH/water/MTBE (9/1/20), 0° C.) of roughly 3000 µg/mL (≈ 6.67 mM). The solubility ([5]; organic solvent or mixture, MeOH, 25° C.) was 8300 µg/mL (≈ 18.5 mM), the solubility ([5]; organic solvent or mixture, MeOH, 50° C.) was 29000 to 33000 µg/mL (≈ 64.5 to 73.4 mM) and the solubility ([5]; organic solvent or mixture, MeOH, 60° C.) was 71000 to 83000 µg/mL (≈ 158 to 185 mM). The solubility at 30 min ([5]; organic solvent or mixture, MeOH, RT, read-out: Dynamic solubility) was 8300 µg/mL (≈ 18.5 mM), the solubility at 30 min ([5]; volume ratio 1/2, organic solvent or mixture, Ethyl formate/Acetone, volume ratio ½, RT, read-out: Solubility) was less than 2000 µg/mL and the solubility at 30 min ([5]; volume ratio 1/2, organic solvent or mixture, Ethyl formate/EA, volume ratio ½, RT, read-out: Solubility) was less than 1000 µg/mL. The solubility at 30 min ([5]; volume ratio 1/2, organic solvent or mixture, Ethyl formate/IPA, volume ratio ½, RT, read-out: Solubility) was less than 2000 µg/mL, the solubility at 30 min ([5]; volume ratio 1/2, organic solvent or mixture, Ethyl formate/IPAC, volume ratio ½, RT, read-out: Solubility) was less than 1000 µg/mL and the solubility at 30 min ([5]; volume ratio 1/2, organic solvent or mixture, Ethyl formate/MEK, volume ratio ½, RT, read-out: Solubility) was less than 2000 µg/mL. For the same compound, the solubility at 30 min ([5]; volume ratio 1/2, organic solvent or mixture, Ethyl formate/MTBE, volume ratio ½, RT, read-out: Solubility) was less than 2000 µg/mL, the solubility at 30 min ([5]; volume ratio 1/2, organic solvent or mixture, Ethyl formate/diethyl ether, volume ratio ½, RT, read-out: Solubility) was 7000 to 8000 µg/mL and the solubility at 30 min ([5]; volume ratio 1/2, organic solvent or mixture, Ethyl formate/n-BuOH, volume ratio ½, RT, read-out: Solubility) was 3000 to 4000 µg/mL. It also gave a solubility at 30 min ([5]; volume ratio 1/2, organic solvent or mixture, MEK/EA, volume ratio ½, RT, read-out: Solubility) of less than 1000 µg/mL, a solubility at 30 min ([5]; volume ratio 1/2, organic solvent or mixture, MEK/Ethyl formate, volume ratio ½, RT, read-out: Solubility) of less than 1000 µg/mL and a solubility at 30 min ([5]; volume ratio 1/2, organic solvent or mixture, MEK/IPA, volume ratio ½, RT, read-out: Solubility) of less than 1000 µg/mL. The solubility at 30 min ([5]; volume ratio 1/2, organic solvent or mixture, MEK/IPAC, volume ratio ½, RT, read-out: Solubility) was less than 1000 µg/mL, the solubility at 30 min ([5]; volume ratio 1/2, organic solvent or mixture, MEK/diethyl ether, volume ratio ½, RT, read-out: Solubility) was less than 1000 µg/mL and the solubility at 30 min ([5]; volume ratio 1/2, organic solvent or mixture, MEK/n-BuOH, volume ratio ½, RT, read-out: Solubility) was less than 1000 µg/mL. The solubility at 30 min ([5]; volume ratio 1/2, organic solvent or mixture, MeOH/Acetone, volume ratio ½, RT, read-out: Solubility) was less than 14000 µg/mL, the solubility at 30 min ([5]; volume ratio 1/2, organic solvent or mixture, MeOH/Diethyl ether, volume ratio ½, RT, read-out: Solubility) was less than 2000 µg/mL and the solubility at 30 min ([5]; volume ratio 1/2, organic solvent or mixture, MeOH/EA, volume ratio ½, RT, read-out: Solubility) was less than 10000 µg/mL. It also gave a solubility at 30 min ([5]; volume ratio 1/2, organic solvent or mixture, MeOH/Ethyl formate, volume ratio ½, RT, read-out: Solubility) of less than 25000 µg/mL, a solubility at 30 min ([5]; volume ratio 1/2, organic solvent or mixture, MeOH/MEK, volume ratio ½, RT, read-out: Solubility) of 24000 to 30000 µg/mL and a solubility at 30 min ([5]; volume ratio 1/2, organic solvent or mixture, MeOH/n-BuOH, volume ratio ½, RT, read-out: Solubility) of less than 3000 µg/mL. It also gave a solubility at 30 min ([5]; volume ratio 1/9, organic solvent or mixture, MeOH/Ethyl formate, volume ratio ⅑, RT, read-out: Solubility) of less than 1000 µg/mL and a solubility at 30 min ([5]; volume ratio 1/9, organic solvent or mixture, MeOH/MEK, volume ratio ⅑, RT, read-out: Solubility) of 7000 to 8000 µg/mL.
